Test results published in BindingDB's records for doi:10.1016/j.bmcl.2016.04.030 (Galecto Biotech, 2016).

Columns and labels:
[1] = Antagonist activity at P2Y12 receptor in human platelets assessed as inhibition of ADP-induced platelet aggregation by turbidimetric method
[2] = Antagonist activity at P2Y12 receptor in human platelets assessed as inhibition of ADP-induced platelet aggregation by microplate reader analysis

| SMILES | IC50 [1] [µM] | IC50 [2] [µM] |
| --- | --- | --- |
| Nc1ncnc2c1ncn2[C@@H]1O[C@H](COP(=O)(O)OP(=O)(O)C(Cl)(Cl)P(=O)(O)O)[C@@H](O)[C@H]1O | 316 | – |
| O=P(O)(OC[C@H]1O[C@@H](n2cnc3c(NCC(F)(F)F)nc(SCCC(F)(F)F)nc32)[C@H](O)[C@@H]1O)OP(=O)(O)C(Cl)(Cl)P(=O)(O)O | 0.000794 | – |
| Nc1ncnc2c1ncn2[C@@H]1O[C@H](CO[P@@](=O)(O)O[P@](=O)(O)OP(=O)(O)O)[C@@H](O)[C@H]1O [ATP] | 251 | – |

Other lines, results leading:

| IC50 [1] [µM] | IC50 [2] [µM] | SMILES |
| --- | --- | --- |
| 0.0025 | – | CCCSc1nc(N)c2ncn([C@@H]3O[C@H](COP(=O)(O)OP(=O)(O)C(Cl)(Cl)P(=O)(O)O)[C@@H](O)[C@H]3O)c2n1 |
| – | < 10 | CNc1cc2[nH]c(=O)n(-c3ccc(NC(=O)NS(=O)(=O)c4ccc(Cl)s4)cc3)c(=O)c2cc1F [ELINOGREL] |
